Where a name gives a salt, the structure may show the parent alone. Read-outs that look alike come from different tables or passages of the source.
Tests used:
[1] = percutaneous permeability test using a Franz cell after electroporation, abdominal skin
Protocol: Calcein sodium salt was used as a model labeled drug at a concentration of 1 mM. The ingredients were stirred and solubilized to obtain the compositions for electroporation (solutions) of the present invention. The percutaneous absorption promotion actions of these compositions for electroporation were measured by percutaneous permeability test using a Franz cell. That is, a skin sample was collected from the abdomen of a hairless rat, and subcutaneous fat was removed from the sample. The skin sample was loaded in the Franz cell as a partition wall with its horny cell layer facing towards the donor side. The receiver side was filled with an isotonic phosphate-buffered saline (PBS). The donor side was filled with 3 mL of the aforementioned composition for electroporation of the present invention. The receiver side was stirred at 1200 rpm by using a star-head type stirrer. After the electroporation, 0.3 mL of the solution in the receiver side was serially collected in a time course and added with the same amount of isotonic phosphate-buffered saline (PBS) to examine the percutaneous permeability. […] The amount of calcein sodium salt was measured by a fluorometer. Further, as for the conditions of electroporation, ECM-830 produced by BTX was used, 10 pulses of 10 ms at 300 V was applied at intervals of 1 minute immediately after the drug administration, and then the power was turned off.
The same examination as in Example 1 was conducted by using various metal chlorides.
The same examination as in Example 1 was conducted by using trivalent metal ion chlorides. As for the electroporation conditions, 10 pulses of 10 ms at 300 V were applied at intervals of 1 second immediately after the drug administration. As the trivalent metal ion chlorides, iron chloride and aluminum chloride were used.
The same examination as in Example 1 was conducted by using FITC-dextran as a model labeled drug. As for the electroporation conditions, 10 pulses of 10 ms at 300 V were applied at intervals of 1 second immediately after the drug administration. As the FITC-dextran, FD4 (molecular weight: 4300), FD10 (molecular weight: 9600) and FD40 (molecular weight: 35600) were used.

[2] = percutaneous permeability test using a Franz cell after electroporation, dorsal skin; assay type: in vitro ADME, hairless rat
Source text: However, dorsal skin of a hairless rat was used as the skin sample. […] As the model labeled drugs, sodium dexamethasone phosphate (DEX.Na), ritodrine hydrochloride (RIT), dimemorfan phosphate (DIM), caffeine (CAF), azelastine hydrochloride (AZR), tipepidine hibenzate (TIP), benzoic acid (BA), phenytoin (PEN) and testosterone (TES) were used.

[Cl][Al]([Cl])[Cl] [aluminum chloride]
percutaneous absorption (calcein), trivalent metal ion chlorides vs calcium ions [1]: neither of the trivalent metal ions significantly promoted percutaneous absorption

CN1CCCC(n2nc(Cc3ccc(Cl)cc3)c3ccccc3c2=O)CC1 (stereo not drawn) [azelastine hydrochloride]
percutaneous absorption of the model labeled drug on addition of calcium ions [2]: significantly promoted percutaneous absorption

[Ba+2].[Cl-].[Cl-] [barium chloride]
absorption of calcein during electroporation ([1]; Example 9, various divalent metal chlorides added, FIG. 7): promoted the absorption of calcein

[Cl-].[K+] [potassium chloride]
percutaneous absorption promotion action (buprenorphine hydrochloride) ([1]; Example 8, sample of Example 4 with metal chloride changed, all 150 mM, buprenorphine hydrochloride 0.02% by weight, FIGS. 5 and 6): promoted percutaneous absorption

CN1CCCC(=C(c2cccs2)c2cccs2)C1.O=C(O)c1ccccc1C(=O)c1ccc(O)cc1 [tipepidine hibenzate]
percutaneous absorption of the model labeled drug on addition of calcium ions ([2]; Example 11, dorsal skin, addition of CaCl2, 10 pulses of 10 ms at 300 V at intervals of 1 second, FIG. 9): significantly promoted percutaneous absorption

iron chloride
percutaneous absorption (calcein), trivalent metal ion chlorides vs calcium ions [1]: neither of the trivalent metal ions significantly promoted percutaneous absorption

From patent US6878548B2, “Composition for use in electroporation” (Pola Chemical Industries Inc., priority 2001, dated 2005)
